# Measurements as given in US10759777B2, “Carbazole-containing amides, carbamates, and ureas as cryptochrome modulators” (Synchronicity Pharma, Inc., priority 2014, dated 2020).
# Assays:
# [1] = system: core clock genes (Per2, Bmal1, Cry1, Cry2) and gluconeogenic genes (Pckl, G6Pc) in liver; experiment: 24 hour gene expression studies, liver mRNA by RT-qPCR; assay type: in vivo, mouse; conditions: 50 mg/kg PO BID
# Source text: Male C57Bl/6J DIO mice were purchased at 17 weeks of age (The Jackson Laboratory, Sacramento, Calif.) and acclimated for a 2 week period before being used for the experiment. Overall group size was 15 per treatment, divided into 5 time-points to give a final group size of 3 mice.
# In total, each mouse received 5 doses of compound over the course of the experiment. Mice were weighed and randomly assigned to each treatment based on weight the evening before the commencement of the study. Beginning on Day 3 at 3:00 PM, a group of animals from the vehicle and Compound 72-treated groups were euthanized using CO2 asphyxiation, 50 mg of liver, epididymal fat, and skeletal muscle, respectively, were excised and placed in tube containing 500 μl of RNALater. This procedure took place for the remainder of the time-point groups at their given harvest times. Plasma samples were also taken for each animal and frozen, to be used for later measurement of compound levels.
# E.Z.N.A.® HP Total RNA Isolation Kits (R6812-01 and the protocol described in the Manual, Revised 2010) were utilized to prepare and isolate RNA from the liver samples. To prepare the RNA samples, 10-30 mg of sample was removed from RNA-Later and placed in a 1.5 ml microfuge tube. GTC lysis buffer (700 μl) was added to the tissue, which was homogenized with a rotor-stator homogenizer (e.g. Tissue-Tearor, Model #985370 BioSpec Products with 4.5 mm probe, Cat. #985370-04), and then centrifuged at full speed (≥13,000×g) for 5 minutes. The cleared supernatant was transferred by pipetting to a DNA Clearance Column Pre-inserted in a 2 mL Collection Tube. The assembled column was centrifuged at 13,000×g for 1 minute, and the flow-through was saved. An equal volume (700 μl) of 70% ethanol was added to the lysate and mixed. The sample was then applied to a HiBind RNA spin column placed into a 2 ml collection tube, which was centrifuged at 10,000×g for 60 seconds at room temperature. RNA Wash Buffer I (250 μl) was added by pipetting directly onto a new HiBind RNA column inserted in a 2 ml collection tube. The assembled column was centrifuged at 10,000×g for 60 seconds. The RNA column was placed into a new 2 ml collection tube. DNase I stock solution is pipetted (75 μl) directly onto the surface of the HiBind RNA resin in each column (Using DNAse Digestion with RNase Free DNase Set (E1091): for each HiBind RNA column, the DNase I stock solution was prepared as followed: E.Z.N.A.® DNase I Digestion Buffer 73.5 μl, RNase Free DNase I (20 Kunitz/μl) 1.5 μl=Total Volume 75 μl). The column with bound RNA was incubated at room temperature (25-30° C.) for 15 minutes. RNA Wash Buffer I (500 μl) was added to the column and placed on a bench top for 2 minutes. After centrifuging at 10,000×g for 60 seconds, discarding the flow-through, 500 μl of RNA Wash Buffer II was added and centrifuged at 10,000×g for 60 seconds. Another 500 μl of RNA Wash Buffer II was added and the column assembly was centrifuged at 10,000×g for 60 seconds. The column was centrifuged for 2 minutes at maximum speed to completely dry the HiBind matrix. The column was placed in a clean 1.5 ml microcentrifuge tube and 40-70 μl of molecular biology grade water is added. […]
# RediPlate 96 RiboGreen RNA Quantification Kit (Invitrogen) RediPlate standard curve was prepared by transferring 20 l reconstituted RNA standard to a RediPlate well reconstituted in 180 l RediPlate TE buffer. […]
# [2] = system: db/db mouse model of type II diabetes; experiment: Single dose at peak or nadir of clock gene expression, OGTT in db/db mice; assay type: in vivo
# Source text: Mice were split into two study arms, to be dosed at either the peak or nadir of Cry1 and Bmal1 gene expression. […] Mice dosed at ZT10 were fasted beginning at 8:30 am in the same manner.
# (§1) Significance was accepted when p<0.05.
# [3] = system: db/db mouse model of type II diabetes; experiment: Increasing dosages of Compound 72 over 7 days in db/db mice; assay type: in vivo
# Source text: as §1
# [4] = Pharmacokinetic analysis in SD rats; assay type: in vivo; conditions: plasma; rat; 50 mg/kg P.O.
# Protocol: Male SD rats (weighing 250-300 g, Charles River Laboratories) were used for the experiment with n=4 rats for each experimental group. […] Blood was collected at the following time points after administration: 15, 30, 60, 90 minutes, 3, 6, 12 and 24 hours. A pre-dose sample was also collected. Animals were cannulated by technical staff at Charles River, prior to delivery at Reset. Whole blood (0.3 ml) was collected from a cannula in the right common jugular vein at each time-point. The whole blood was transferred to an EDTA tube, and then centrifuged at 5400 rpm for 5 minutes at 4° C. The resultant plasma was frozen using dry ice and then stored at −80° C. until ready for assay. 0.9% Sodium Chloride (0.3 ml) was administered for fluid replenishment after each blood draw. 0.1 ml of Sodium Heparin (500 IU/ml) was used as a lock solution after the 12 hr time-point. Samples were assayed as described above.
smiles,measurement,setting,value
"O=C1NCCN1CC(O)Cn1c2ccc(F)cc2c2cc(F)ccc21 (centres unmarked) [Compound 72, 1-(3-(3,6-difluoro-9H-carbazol-9-yl)-2-hydroxypropyl)imidazolidin-2-one]",Cry2 mRNA in liver (daytime peak),[1]; C57Bl/6J DIO and Balb/c mice,strongly attenuated
same,Per2 mRNA in liver,"[1]; C57Bl/6J DIO and Balb/c mice, over 24 hours, vs vehicle",suppressed
same,circadian pattern of mRNAs for gluconeogenic genes Pckl and G6Pc,"[1]; C57Bl/6J DIO mice, relative to vehicle",substantially altered
same,Bmal1 mRNAs in liver,"[1]; both strains, at ZT8 and 32 hours after ZT0, vs vehicle",substantially increased
same,Cry1 mRNA in liver,[1]; during its peak of expression in the dark period,suppressed
same,"effect on OGTT measurement, dosed at peak","[2]; 50 mg/kg PO single dose at ZT0, db/db mice",apparent effect
same,"effect on OGTT measurement, dosed at nadir","[2]; 50 mg/kg PO single dose at ZT10, db/db mice",no effect
same,reduction in glucose excursion (AUC),"[2]; 50 mg/kg PO single dose at peak (ZT0), vs vehicle",14%
same,reduction of HOMA-IR compared to vehicle,[3]; 100 mg/kg PO QD 7 days,34%
same,OGTT glucose excursion,"[3]; 10, 50, 100 mg/kg PO QD 7 days",dose dependent effect on glucose excursion
same,% AUC extrapolated,[4],3.3%
